Source: patent US7692012B2, “Vanadium compounds as inhibitors of phosphatases” (Imperial College Innovations Limited, priority 2003, dated 2010)
Read-outs that look alike come from different tables or passages of the source.

What was measured:
SopB = SopB (Salmonella typhimurium, UniProt O30916); experiment: biochemical; format: biochemical
PTP-β = target: T1, PTP-β (Homo sapiens, UniProt P23467); experiment: PTPase assay with pNPP as substrate; format: biochemical
T1 construct: purchased Upstate Biotechnology
T1 sequence (P23467 23-1997): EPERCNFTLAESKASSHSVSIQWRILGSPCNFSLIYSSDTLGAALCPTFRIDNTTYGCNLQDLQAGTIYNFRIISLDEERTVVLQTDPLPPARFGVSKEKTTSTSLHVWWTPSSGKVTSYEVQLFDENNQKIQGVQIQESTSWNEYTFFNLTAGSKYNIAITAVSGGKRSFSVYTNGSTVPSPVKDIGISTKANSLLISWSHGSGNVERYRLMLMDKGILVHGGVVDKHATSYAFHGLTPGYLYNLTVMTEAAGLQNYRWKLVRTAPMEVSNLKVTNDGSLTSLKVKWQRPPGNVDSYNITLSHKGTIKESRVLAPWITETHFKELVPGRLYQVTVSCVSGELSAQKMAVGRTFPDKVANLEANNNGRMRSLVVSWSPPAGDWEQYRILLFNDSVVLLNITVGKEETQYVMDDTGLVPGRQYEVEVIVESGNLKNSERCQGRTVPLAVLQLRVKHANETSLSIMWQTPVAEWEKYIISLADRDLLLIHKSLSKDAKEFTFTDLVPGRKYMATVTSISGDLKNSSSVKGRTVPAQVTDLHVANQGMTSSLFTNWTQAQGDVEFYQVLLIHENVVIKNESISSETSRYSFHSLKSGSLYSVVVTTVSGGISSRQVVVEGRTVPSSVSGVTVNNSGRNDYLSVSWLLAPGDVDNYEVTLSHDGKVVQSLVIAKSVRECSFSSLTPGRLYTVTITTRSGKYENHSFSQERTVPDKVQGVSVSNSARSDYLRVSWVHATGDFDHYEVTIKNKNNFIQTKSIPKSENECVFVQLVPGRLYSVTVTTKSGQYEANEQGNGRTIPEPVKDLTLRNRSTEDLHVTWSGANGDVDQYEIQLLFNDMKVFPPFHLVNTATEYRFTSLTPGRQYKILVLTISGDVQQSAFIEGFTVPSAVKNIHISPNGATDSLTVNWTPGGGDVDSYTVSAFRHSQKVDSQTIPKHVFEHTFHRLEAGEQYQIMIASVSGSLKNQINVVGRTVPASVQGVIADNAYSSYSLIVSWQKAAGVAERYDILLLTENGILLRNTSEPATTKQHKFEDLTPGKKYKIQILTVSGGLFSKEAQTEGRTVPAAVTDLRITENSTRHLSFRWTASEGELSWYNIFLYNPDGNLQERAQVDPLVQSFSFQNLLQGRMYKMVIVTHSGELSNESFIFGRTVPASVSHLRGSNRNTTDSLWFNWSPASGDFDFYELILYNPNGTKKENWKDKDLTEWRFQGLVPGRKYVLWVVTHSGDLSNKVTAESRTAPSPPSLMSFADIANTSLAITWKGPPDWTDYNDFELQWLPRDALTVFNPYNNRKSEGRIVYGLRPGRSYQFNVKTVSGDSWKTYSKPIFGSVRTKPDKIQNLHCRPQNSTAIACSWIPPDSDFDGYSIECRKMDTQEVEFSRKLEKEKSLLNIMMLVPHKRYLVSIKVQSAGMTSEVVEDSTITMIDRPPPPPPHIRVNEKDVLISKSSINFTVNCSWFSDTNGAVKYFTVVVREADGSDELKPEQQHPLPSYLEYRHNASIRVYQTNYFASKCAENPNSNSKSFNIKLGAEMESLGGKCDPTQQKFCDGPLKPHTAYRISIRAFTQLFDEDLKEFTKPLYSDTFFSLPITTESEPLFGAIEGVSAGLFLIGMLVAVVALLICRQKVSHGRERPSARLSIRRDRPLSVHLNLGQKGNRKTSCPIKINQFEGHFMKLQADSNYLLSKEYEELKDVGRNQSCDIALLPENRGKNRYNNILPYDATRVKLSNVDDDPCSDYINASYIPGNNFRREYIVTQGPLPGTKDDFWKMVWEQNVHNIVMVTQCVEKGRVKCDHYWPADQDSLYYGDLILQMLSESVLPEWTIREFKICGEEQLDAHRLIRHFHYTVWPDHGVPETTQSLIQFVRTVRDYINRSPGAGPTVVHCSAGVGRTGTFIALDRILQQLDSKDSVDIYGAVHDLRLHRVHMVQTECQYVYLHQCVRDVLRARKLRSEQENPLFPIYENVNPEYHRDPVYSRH
Protocol: Protein tyrosine phosphatase (PTPase) assays were performed using the synthetic substrate p-nitrophenylphosphate (pNPP) and the phosphatases PTP-1B and PTP-β (Upstate Biotechnology). The standard assay conditions were 25 mM HEPES pH 7.2, 50 mM NaCl, 5 mM DTT, 2.5 mM EDTA, 100 μg/ml BSA, 1 mM pNPP (Sigma) and 4 unit PTP-1B and 10 unit PTP-β, respectively. The assay was started by adding the enzyme and was carried out for 15 min at 30 C in a preheated ELISA reader chamber. The linear increase of absorbance was monitored every 30 seconds at a wavelength of 410 nm.

MTM = target: T2, MTM (Homo sapiens, UniProt Q13496); experiment: MTM IC50 (inositol phosphatase inhibition); format: biochemical
T2 sequence (Q13496 1-603): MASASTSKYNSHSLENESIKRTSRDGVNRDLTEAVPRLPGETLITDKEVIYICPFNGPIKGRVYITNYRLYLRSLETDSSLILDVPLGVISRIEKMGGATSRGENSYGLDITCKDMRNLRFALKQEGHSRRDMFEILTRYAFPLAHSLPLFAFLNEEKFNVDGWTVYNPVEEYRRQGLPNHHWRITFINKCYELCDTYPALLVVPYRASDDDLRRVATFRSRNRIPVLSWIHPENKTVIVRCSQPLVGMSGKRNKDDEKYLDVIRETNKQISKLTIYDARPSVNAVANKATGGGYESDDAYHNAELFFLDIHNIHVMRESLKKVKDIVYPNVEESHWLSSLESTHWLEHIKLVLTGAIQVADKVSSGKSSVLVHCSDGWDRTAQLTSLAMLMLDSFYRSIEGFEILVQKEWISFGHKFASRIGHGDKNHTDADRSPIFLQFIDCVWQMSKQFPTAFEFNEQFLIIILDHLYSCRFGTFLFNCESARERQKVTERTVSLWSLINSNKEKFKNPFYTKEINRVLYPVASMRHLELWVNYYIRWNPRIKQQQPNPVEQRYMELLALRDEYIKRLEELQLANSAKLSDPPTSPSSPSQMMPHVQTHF

PTEN [1] = target: T3, PTEN (Homo sapiens, UniProt P60484); experiment: Malachite green phosphate release assay with PI(3,4,5)P3; format: biochemical; settings: for PTEN inhibition, summary in words: comment below PTEN table; for specificity of phosphatase inhibition: PTEN versus SopB, MTM, PTP; for IC50: head says published data, same values as the applicant's FIG. 1 study, read-out: PTEN Published data In vitro enzyme assay confirmed by in vivo data
T3 construct: GST (N); made in house; host or cells: Escherichia coli DH5 alpha
T3 sequence (P60484 whole entry): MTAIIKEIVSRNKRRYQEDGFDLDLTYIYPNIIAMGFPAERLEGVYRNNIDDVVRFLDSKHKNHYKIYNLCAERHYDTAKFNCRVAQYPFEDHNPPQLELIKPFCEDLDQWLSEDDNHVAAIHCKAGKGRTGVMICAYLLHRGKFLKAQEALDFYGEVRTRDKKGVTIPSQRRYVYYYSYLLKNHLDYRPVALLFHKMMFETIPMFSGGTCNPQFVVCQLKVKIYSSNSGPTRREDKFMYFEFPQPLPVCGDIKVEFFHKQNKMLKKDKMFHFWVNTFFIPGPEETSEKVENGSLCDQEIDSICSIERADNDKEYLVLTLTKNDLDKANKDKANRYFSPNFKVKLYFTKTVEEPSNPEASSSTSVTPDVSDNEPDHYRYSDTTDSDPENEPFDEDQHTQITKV
Protocol: The coding region of the DNA sequence of human PTEN was cloned into a pGEX-4T2 expression vector (Pharmacia). Protein expression was induced overnight in the Escherichia coli DH5[…] strain using 100 μM IPTG at 18 C. GST-fusion proteins were purified according to the manufacturer's manual using glutathione sepharose 4B (Pharmacia). Protein integrity and specificity were confirmed on a Western Blot using GST antibody (Novagen).
Enzyme activity of recombinant PTEN was measured with a malachite green dye based phosphate release assay (No 230, No 83). The standard assay conditions were 200 mM Tris pH 7.4, 50 ng/μl BSA, and 15 ng/μl PTEN. The synthetic lipid PI(3,4,5)P3dC16 (Cell Signals) was used as a substrate for PTEN. The lipid was dissolved in methanol/H2O and stored at −20 C. Prior to the use in these PIPase experiments, an appropriate amount of lipid was dried down and resuspended in 1% Octylglycoside (Sigma). After 10 min of sonication lipid samples were ready to be added to the enzyme assay. All assays were started by adding the enzyme into the pre-heated buffer solution, containing PI(3,4,5)P3dC16. Linear PIPase reactions were performed at 30 C for 30 min in an incubation chamber. In order to stop the enzyme reaction, 0.7 volume of colour reagent (2.3 mg/ml malachite green in 3.6 M HCl and 17 mM ammonium molybdate) was added to the enzyme solution. The mixture was allowed to develop for 20 min and the absorbance at 625 nm was measured. For all inhibitor studies inhibitor concentrations from 0.1 nM up to 500 nM were pre-incubated with PTEN and the enzyme assays were started by adding 150 μM sonicated lipid. To normalize the phosphate release a phosphate standard curve was used. All experiments were repeated in tripletts. Calculations for IC50 values were performed using GraphPad Prism.

PTEN [2] = target: T4, PTEN (Mus musculus, UniProt O08586); experiment: PKB assay: dose dependence of PTEN inhibition in insulin-stimulated NIH3T3 cells (pSer473 Western blot); format: cell-based; settings: for increase of PKB phosphorylation in comparison with the control: 20 nM compound, control 0.5 μg/ml insulin; for IC50: NIH3T3, 5 min compound then 0.5 μg/ml insulin 15 min, read-out: IC50 (in vivo PTEN inhibition, densitometry of pSer473 PKB)
T4 construct: endogenous in cells; host or cells: NIH3T3
T4 sequence (O08586 whole entry): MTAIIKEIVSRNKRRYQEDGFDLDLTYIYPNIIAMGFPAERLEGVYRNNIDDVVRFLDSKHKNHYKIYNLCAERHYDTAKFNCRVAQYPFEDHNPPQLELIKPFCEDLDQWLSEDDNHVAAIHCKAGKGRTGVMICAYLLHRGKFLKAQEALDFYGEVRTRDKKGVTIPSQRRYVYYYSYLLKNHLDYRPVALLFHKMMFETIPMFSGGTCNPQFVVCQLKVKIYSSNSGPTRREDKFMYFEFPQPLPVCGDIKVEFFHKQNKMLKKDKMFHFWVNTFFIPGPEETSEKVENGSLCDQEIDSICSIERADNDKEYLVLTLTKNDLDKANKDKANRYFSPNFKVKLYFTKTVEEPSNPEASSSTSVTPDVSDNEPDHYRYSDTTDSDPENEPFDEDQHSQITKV
Protocol: (§1) NIH3T3 cells (passage 5-20) were grown in 10% NCS D-MEM (GIBCO BRL) in 6-well plates at 37 C and 5% CO2. Starvation of the cells was carried out over 72 h in D-MEM containing 0.5% NCS. Prior use medium was changed to 0% D-MEM. UM-UC-3 cells which is a PTEN^− bladder tumour cell line (NO 195, No 196) were grown in 10% MEM (GIBCO BRL), starved with 0.5% MEM also for three days and finally incubated with serum free MEM.
(§2) UM-UC-3 cells were treated in exactly the same manner. Cell samples were analysed on Western Blots with PKB antibodies.
(§3) All cell lysate samples were loaded on 10% SDS-PAGE and transferred to PVDF membranes for PKB analysis and nitrocellulose for phospho tyrosine detection. For PKB Western Blots membranes were blocked for 1 h with 5% milk powder in TBST followed by an incubation with anti Mass PKB antibody (1:1000) or anti phospho-PKB (Ser473) antibody (1:1000) in TBST for 2 h. Finally, membranes were exposed to a horseradish peroxidase-conjugated secondary antiserum (BIORAD) (1:1000) in 5% milk powder solution for 1 h. The Western Blots were developed with ECL™ solution (Amersham). In order to detect phosphorylated tyrosine residues nitrocellulose membranes were blocked for 1 h with 2.5% milk powder, first incubated with a specific anti phosphotyrosine antibody (4G10) (1:3000) for 1 h, and finally with horseradish peroxidase-conjugated secondary anti mouse antiserum. All PKB and Phospho-Tyrosine experiments were accomplished in three independent experiments and all membranes were re-probed using a specific tubulin antibody (1:1000). Density analysis of bands took place using the public domain NIH Image V1.62 program (developed at the U.S. National Institutes of Health and available on the Internet at http://rsb.info.nih.gov/nih-image/).

PTEN [3] = target: T4, PTEN; experiment: PTEN preliminary data (western blots); format: cell-based
Protocol: as §2, §3

[4] = system: PKB phosphorylation (pSer473) in NIH3T3 cells; experiment: PKB assay: activation of insulin signalling pathway (insulin mimetic property), NIH3T3; format: cell-based; settings: NIH3T3, 1 μM, 15 min, no insulin
Protocol: as §1
Cells were washed once with PBS and lysed using 80 μl SDS-PAGE buffer (250 mM Tris pH 6.8, 20% glycerol, 4% SDS, 0.01% bromphenol blue, 50 mM mercaptoethanol). Samples were boiled for 15 min and stored at −20 C until analysis on Western Blots as described in the last paragraph.
as §3

NIH3T3 cells = experiment: Phalloidin staining (actin re-arrangement, morphology); format: cell-based; settings: 0.1 μM, 6 h and 24 h
Protocol: In order to monitor morphological changes NIH3T3 cells were grown on 8-well chamber slides and incubated with concentrations of bpV(pic) and bpV(phen) between 0.1 and 10 μM for 6 h and 24 h, respectively. Fibroblasts were fixed with 4% para-formaldehyde (PFA), permeabilised with 0.2% Triton and blocked with 10% NCS (newborn calf serum). To stain actin filaments cells were incubated with TRITC-phalloidin (Sigma) (1:1000) for 1 h. Finally, nuclei were DAPI (Sigma) stained and mounted. Morphological analyses were assessed on a microscope using filters for TRITC and DAPI and pictures were captured using a camera.

[5] = system: phosphorylation of tyrosine residues in NIH3T3 cells; experiment: Phosphotyrosine assay with NIH3T3 cells; format: cell-based; settings: 15 min
Protocol: NIH3T3 cells were grown and starved as described earlier. After 72 h starvation cells were incubated for 15 min with 10% NCS, 50, 10 and […] insulin (Sigma), 10, 1, 0.1 and 0.01 μM bpV(pic) and bpV(phen), respectively. Cell lysates were prepared as described above and all samples were analysed on Western Blots using an anti phospho-tyrosine antibody (Upstate).
as §3

[6] = system: PKB phosphorylation (Ser473) in NIH3T3 cells; experiment: PKB assay in the presence of PI3K inhibitor Ly294002 and mTOR inhibitor rapamycin; format: cell-based
Protocol: In order to study the influence of PI3K and mTOR on the bpV-dependent insulin mimetic feature we treated NIH3T3 cells with 10 μM LY294002 (Promega) and 50 nM rapamycin (Calbiochem) for 20 min and 30 min, respectively, followed by an incubation with 10 μM or 1 μM bpv(pic) for 15 min. Cell lysates were analysed on PKB Western Blots.
as §3

[7] = system: PKB phosphorylation (pSer473) in NIH3T3 cells; experiment: Ly294002 dose dependence with and without bpV(pic); format: cell-based
Protocol: In order to find out whether bpV(pic) has an influence on Ly294002-dependent PKB inhibition we accomplished a dose response experiment applying concentrations from 0.01 up to 100 μM Ly294002 to two sets of quiescent fibroblasts and incubated for 20 min. One batch of cells were then further treated with 200 nM bpV(pic) (5 min) and all cells were finally stimulated with 10 μg/ml insulin for 15 min. Cell lysates were collected as described earlier. Calculations and graph were performed using GraphPad Prism.
as §3

[8] = +IV compound, read-out: IC50 SopB
[9] = +V compound, read-out: IC50 SopB

Chain of SopB (O30916 whole entry): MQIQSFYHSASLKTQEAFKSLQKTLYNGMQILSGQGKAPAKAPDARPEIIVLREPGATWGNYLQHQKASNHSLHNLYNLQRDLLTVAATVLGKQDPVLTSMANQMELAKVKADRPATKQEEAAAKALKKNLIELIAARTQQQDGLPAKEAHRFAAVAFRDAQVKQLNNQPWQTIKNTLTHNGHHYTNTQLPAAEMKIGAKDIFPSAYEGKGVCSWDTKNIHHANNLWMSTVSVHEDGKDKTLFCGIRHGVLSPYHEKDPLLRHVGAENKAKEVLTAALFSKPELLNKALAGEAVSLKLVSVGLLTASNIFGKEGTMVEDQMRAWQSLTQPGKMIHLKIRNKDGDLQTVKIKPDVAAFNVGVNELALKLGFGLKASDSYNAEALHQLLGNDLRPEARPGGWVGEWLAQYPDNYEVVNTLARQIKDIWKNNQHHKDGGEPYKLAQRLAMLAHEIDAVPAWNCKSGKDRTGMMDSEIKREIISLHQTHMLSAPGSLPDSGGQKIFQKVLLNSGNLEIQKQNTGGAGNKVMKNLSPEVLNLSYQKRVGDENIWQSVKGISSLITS

Row | Compound | IC50 (PTP-β; V(+IV) compounds) | IC50 (MTM; Compound(+IV)) | IC50 (SopB; [9]) | increase of PKB phosphorylation in comparison with the control (PTEN [2]) | IC50 (PTEN [3]) | IC50 (MTM; Compound(+V)) | IC50 (PTEN [1]) | phosphorylated PKB signal [4] | also measured
1 | O=C([O-])c1ncccc1O.O=C([O-])c1ncccc1O.[O]=[V+2] [OHpic4] | 57.5 ± 9.4 µM | 4030 ± 40 nM | – | – | – | – | – | – | IC50 (SopB; [8]): 588 ± 163 nM; PTEN inhibition, summary in words (PTEN [1]): very good inhibitors
2 | O=C([O-])c1ccccn1.O=C([O-])c1ccccn1.[O]=[V+2] [pic4] | 589 ± 32.9 µM | 6350 ± 3920 nM | – | – | – | – | – | – | IC50 (SopB; [8]): 125 ± 1.65 nM
3 | O=C([O][V](=[O])[O]C(=O)c1ccc2ccccc2n1)c1ccc2ccccc2n1 [quinolin4] | 212 ± 9.4 µM | 9260 ± 40 nM | – | – | – | – | – | – | IC50 (SopB): 1960 ± 870 nM
4 | O=C([O-])c1ccc(O)cn1.[K+].[K+].[O-2].[O-][O-].[O-][O-].[V+5] [bpV(HOpic), dipotassium bisperoxo(5-hydroxypyridine-2-carboxyl)oxovanadatel] | – | – | 33.2 ± 6.5 nM | about 20% | 211 nM | 346 ± 24.8 nM | 14 ± 2.3 nM | weak signal | IC50 (PTEN [2]): 96 nM; specificity of phosphatase inhibition (PTEN [1]): specifically inhibit PTEN, but not SopB, MTM or PTP
5 | O.O.O.OO.OO.[K+].[OH-].[V].c1cnc2c(c1)ccc1cccnc12 [bpV(phen), potassium bisperoxo(1,10-phenanthroline)oxovanadate] | – | – | 102 nM | – | 275 nM | 407 ± 38.5 nM | 38 ± 2.4 nM | no phosphorylation was visible | cellular morphology (actin staining) (NIH3T3 cells): remained unchanged; tyrosine phosphorylation ([5]; 10 μM): lower stimulation
6 | potassium bisperoxo (piconlinate) oxovanadate [bpV(pic)] | – | – | – | about 20% | – | 239 ± 4.2 nM | 31 ± 1.7 nM | weak signal | cellular morphology (actin staining) (NIH3T3 cells): remained unchanged; IC50 (PTEN [2]): 48 nM; tyrosine phosphorylation ([5]; 0.01 μM): not distinguishable to the negative control; tyrosine phosphorylation ([5]; 10 μM): highest degree of tyrosine phosphorylation; phosphorylation of Ser473 of PKB ([6]; 1 μM bpV(pic) after pre-incubation with 50 nM rapamycin): provoked phosphorylated Ser473; phosphorylation of Ser473 of PKB ([6]; 1 μM bpV(pic) alone): no signal was visible; phosphorylation of Ser473 of PKB ([6]; 10 μM bpV(pic) after pre-incubation with 10 μM Ly294002): reduced phosphorylation rate; phosphorylation of Ser473 of PKB ([6]; 10 μM bpV(pic) alone): high degree of phosphorylation; effect on Ly294002 induced PKB inhibition ([7]; 200 nM bpV(pic), Ly294002 0.01 to 100 μM): can abrogate Ly294002 induced PKB inhibition; PKB phosphorylation at 5 μM Ly294002 ([7]; in the presence of 200 nM bpV(pic)): phosphorylation still occurs
7 | dipotassium bisperoxo(phenylbiguanide)oxovanadate [pV(phenbig)] | – | – | 798 ± 41 nM | – | 48.5 nM | 1890 ± 830 nM | – | – | specificity of phosphatase inhibition (PTEN [1]): specifically inhibit PTEN, but not SopB, MTM or PTP; PTEN inhibition, summary in words (PTEN [1]): very good inhibitors
8 | [K+].[O-][O-].[O-][O-].[O]=[V+3].c1ccc(-c2ccccn2)nc1 [bpV(bipy), potassium bisperoxo (bipyridine) oxovanadate] | – | – | – | about 20% | – | – | – | weak signal | IC50 (PTP-β; aromatic bpVs, pNPP substrate): 0.0603 µM
9 | O=C([O-])c1nccc2ccccc12.[K+].[K+].[O-][O-].[O-][O-].[O]=[V+3] [pV(isoqu)] | – | – | 79.8 ± 9.7 nM | – | 101 nM | 868 ± 187 nM | – | – | IC50 (PTP-β; V(+V) compounds): 349 ± 26.5 µM
10 | O=c1cc(N2CCOCC2)oc2c(-c3ccccc3)cccc12 [Ly294002, reference compound] | – | – | – | – | – | – | – | – | concentration sufficient to inhibit PKB activation completely ([7]; NIH3T3, 10 μg/ml insulin, without bpV(pic)): 5 µM
